In patent publication US9360486B2, “Allergen fragments” (Biomay AG, priority 2007, dated 2016):

Test system: Amb a 1-specific T cell lines (TCL)
Test: T cell epitope mapping of Amb a 1.3: proliferation (3H-thymidine uptake) of TCL stimulated with synthetic peptides
Format: cell-based, human
Details: for No. positive patients SI > 3 / No. positive patients SI > 5 / % (positive patients SI > 3) / % (positive patients SI > 5): TCL from 48 ragweed pollen-allergic patients, peptide 5 μg/ml; for No. positive patients SI > 3 / No. positive patients SI > 5: 3H-thymidine uptake after 48 hrs; for No. positive patients SI > 3 / % (positive patients SI > 3): stimulation index > 3; for No. positive patients SI > 5 / % (positive patients SI > 5): stimulation index > 5; for T cell activating region recognized by % of patients: classes of prevalence referring to SI>5, 48 TCL
Text: The T cell response to Amb a 1 was characterized in detail using the established in vitro culture system (Jahn-Schmid et al., J. Immunol. 169: 6005-11, 2002; Jahn-Schmid et al., J. Allergy Clin. Immunol., 115: 399-404, 2005). In total, 85 clinically well-defined patients (75 from Vienna/10 from Milano) with typical case history, positive skin prick test and CAP/RAST tests for ragweed extract were included.
Peripheral blood mononuclear cells (PBMC) were isolated from heparinized blood of allergic patients by Ficoll density gradient centrifugation. To generate allergen-specific T cell lines (TCL) and T cell clones (TCC), 1.5×10^6 PBMC were stimulated with optimal doses of ragweed or mugwort extract (4 μg/ml) or rAmb a 1.3 (10 μg/ml) in 24-well flat-bottomed culture plates (Costar, USA). After 5 days human rIL-2 (10 U/ml, Boehringer, Mannheim, Germany) were added and cultures were continued for additional 7 days. Then, T cell blasts were isolated by density centrifugation. The majority of T cell blasts was further expanded with IL-2 and irradiated PBMC. A small number of T cell blasts were used to establish monoclonal T cell cultures by limiting dilution: 0.3 T cells/well were seeded into 96 well round bottom plates (Nunclone) in the presence of 2×10^5 irradiated (60 Gy) PBMC, 0.25% v/v PHA (Gibco, USA) and rIL-2 (4 U/well) in the medium mentioned above. After 14-21 days, growing microcultures were expanded at weekly intervals with irradiated PBMC and rIL-2. The specificity of TCC was assessed in proliferation assays using irradiated allogeneic or HLA-matched PBMC or irradiated EBV-transformed allogeneic B-cells and 5 μg/ml Amb a 1.3. After 48 hours, cellular uptake of tritiated (^3H)-thymidine was performed to measure proliferation in counts per minute (cpm). When the stimulation index (SI; ratio between cpm obtained in cultures containing TCC plus autologous APC plus antigen, and cpm obtained in cultures containing TCC and APC alone) was >10, responses were considered as positive. Allergen-specific TCC were expanded by alternating turns of stimulation with autologous irradiated APC and allergen or with allogeneic feeder cells and rIL-2.
Amb a 1-specific TCL and TCC were used to identify T cell epitopes of Amb a 1.3. T cell cultures were stimulated with a panel of 121 synthetic 12-mer peptides and one 13-mer representing the C-terminal peptide of Amb a 1.3 (Pepset, Biotrend, Germany). Peptides had been synthesized according to the Amb a 1.3 amino acid sequence and overlapped for 9 amino acid residues with the neighbouring peptides (Table 1). Peptides were used at a concentration of 5 μg/ml for stimulation and proliferation of T cell cultures was determined after 48 hrs by ^3H-thymidine-uptake. Because of the frequently observed high background caused by auto-reactivity in TCL, the mean of the cpm observed with the ten least stimulating peptides (none of the peptides was toxic) was used as negative control in calculations of SI. Throughout this manuscript, a peptide comprised one T cell epitope when the stimulation index was at least 3.0.
T cell epitope mapping of Amb a 1.3 was performed evaluating 48 TCL from different patients ([…]), which had been initiated with ragweed extract (containing the natural allergen) or rAmb a 1.3 (Table 2). TCL induced with either ragweed extract or rAmb a 1.3 from the same individual recognized similar T cell epitopes (Table 2; FIG. 7). […] Therefore, their data were combined for further analysis (Table 3). Typical for many inhalant allergens, multiple T cell activating regions were detected in Amb a 1.3. The number of peptides recognized by T cells from a single individual ranged from 2 to maximum 60 peptides with a mean of 17.8 peptides (median=16/for SI>3; resp. 0-36/11.9/12 for SI>5) (see Table 3). In total, 26 relevant (i.e. recognized by ≧10% of patients studied) T cell activating regions comprising 12-18 aa were identified. […]

LATVAFNMFTDN (Amb a 1 fragment) [Peptide 79]
reactivity with T cells isolated from allergic individuals: reactivity with T cells | No. positive patients SI > 3: 5 | No. positive patients SI > 5: 2 | % (positive patients SI > 3): 10.4% | % (positive patients SI > 5): 4.2%

LCQGNRFLAPDD (Amb a 1 fragment) [Peptide 95]
No. positive patients SI > 3: 0 | No. positive patients SI > 5: 0 | % (positive patients SI > 3): 0.0% | % (positive patients SI > 5): 0.0%

LDDDVANPKEGT (Amb a 1 fragment) [Peptide 24]
No. positive patients SI > 3: 2 | No. positive patients SI > 5: 1 | % (positive patients SI > 3): 4.2% | % (positive patients SI > 5): 2.1%

LLENGAIFVTSG (Amb a 1 fragment) [Peptide 108]
reactivity with T cells isolated from allergic individuals: reactivity with T cells | No. positive patients SI > 3: 27 | No. positive patients SI > 5: 24 | % (positive patients SI > 3): 56.3% | % (positive patients SI > 5): 50.0%

LPGGMIKSNDGP (Amb a 1 fragment) [Peptide 51]
reactivity with T cells isolated from allergic individuals: reactivity with T cells | No. positive patients SI > 3: 6 | No. positive patients SI > 5: 3 | % (positive patients SI > 3): 12.5% | % (positive patients SI > 5): 6.3%

LRFAAAQNRPLW (Amb a 1 fragment) [Peptide 28]
reactivity with T cells isolated from allergic individuals: reactivity with T cells | No. positive patients SI > 3: 15 | No. positive patients SI > 5: 11 | % (positive patients SI > 3): 31.3% | % (positive patients SI > 5): 22.9%

LTLMNVKNIIIH (Amb a 1 fragment) [Peptide 44]
reactivity with T cells isolated from allergic individuals: reactivity with T cells | No. positive patients SI > 3: 15 | No. positive patients SI > 5: 9 | % (positive patients SI > 3): 31.3% | % (positive patients SI > 5): 18.8% | T cell activating region recognized by % of patients: recognized by 18.8%

LTSSAGVLSCRP (Amb a 1 fragment) [Peptide 120]
reactivity with T cells isolated from allergic individuals: reactivity with T cells | No. positive patients SI > 3: 14 | No. positive patients SI > 5: 9 | % (positive patients SI > 3): 29.2% | % (positive patients SI > 5): 18.8%

LVDVTLGSTHVT (Amb a 1 fragment) [Peptide 66]
No. positive patients SI > 3: 4 | No. positive patients SI > 5: 4 | % (positive patients SI > 3): 8.3% | % (positive patients SI > 5): 8.3%

MIPAEPGEAAIK (Amb a 1 fragment) [Peptide 116]
No. positive patients SI > 3: 6 | No. positive patients SI > 5: 4 | % (positive patients SI > 3): 12.5% | % (positive patients SI > 5): 8.3%

MNVKNIIIHNIN (Amb a 1 fragment) [Peptide 45]
No. positive patients SI > 3: 2 | No. positive patients SI > 5: 0 | % (positive patients SI > 3): 4.2% | % (positive patients SI > 5): 0.0%

MVINLNQELVVN (Amb a 1 fragment) [Peptide 34]
No. positive patients SI > 3: 2 | No. positive patients SI > 5: 2 | % (positive patients SI > 3): 4.2% | % (positive patients SI > 5): 4.2%

NETRSLQACEAY (Amb a 1 fragment) [Peptide 5]
No. positive patients SI > 3: 4 | No. positive patients SI > 5: 0 | % (positive patients SI > 3): 8.3% | % (positive patients SI > 5): 0.0%

NGAIFVTSGSDP (Amb a 1 fragment) [Peptide 109]
reactivity with T cells isolated from allergic individuals: reactivity with T cells | No. positive patients SI > 3: 12 | No. positive patients SI > 5: 9 | % (positive patients SI > 3): 25.0% | % (positive patients SI > 5): 18.8%

NGAIFVTSGSDPVLTPVQ (Amb a 1 fragment) [Peptide 109-111]
reactivity with T cells isolated from allergic individuals: reactivity with T cells | T cell activating region recognized by % of patients: recognized by 22.9%

NGGLTLMNVKNI (Amb a 1 fragment) [Peptide 43]
No. positive patients SI > 3: 4 | No. positive patients SI > 5: 1 | % (positive patients SI > 3): 8.3% | % (positive patients SI > 5): 2.1%

NIIDKCWRGKAD (Amb a 1 fragment) [Peptide 9]
No. positive patients SI > 3: 3 | No. positive patients SI > 5: 2 | % (positive patients SI > 3): 6.3% | % (positive patients SI > 5): 4.2%

NINIHDVKVLPG (Amb a 1 fragment) [Peptide 48]
reactivity with T cells isolated from allergic individuals: reactivity with T cells | No. positive patients SI > 3: 10 | No. positive patients SI > 5: 9 | % (positive patients SI > 3): 20.8% | % (positive patients SI > 5): 18.8%

NLNQELVVNSDK (Amb a 1 fragment) [Peptide 35]
No. positive patients SI > 3: 1 | No. positive patients SI > 5: 1 | % (positive patients SI > 3): 2.1% | % (positive patients SI > 5): 2.1%

NMFTDNVDQRMP (Amb a 1 fragment) [Peptide 81]
reactivity with T cells isolated from allergic individuals: reactivity with T cells | No. positive patients SI > 3: 7 | No. positive patients SI > 5: 6 | % (positive patients SI > 3): 14.6% | % (positive patients SI > 5): 12.5%

NPKEGTLRFAAA (Amb a 1 fragment) [Peptide 26]
No. positive patients SI > 3: 0 | No. positive patients SI > 5: 0 | % (positive patients SI > 3): 0.0% | % (positive patients SI > 5): 0.0%

NRQALADCAQGF (Amb a 1 fragment) [Peptide 14]
No. positive patients SI > 3: 4 | No. positive patients SI > 5: 0 | % (positive patients SI > 3): 8.3% | % (positive patients SI > 5): 0.0%

NVAGSSQIWIDH (Amb a 1 fragment) [Peptide 59]
reactivity with T cells isolated from allergic individuals: reactivity with T cells | No. positive patients SI > 3: 11 | No. positive patients SI > 5: 8 | % (positive patients SI > 3): 22.9% | % (positive patients SI > 5): 16.7%

NVAGSSQIWIDHCSLSKS (Amb a 1 fragment) [Peptide 59-61]
reactivity with T cells isolated from allergic individuals: reactivity with T cells | T cell activating region recognized by % of patients: recognized by 58.3%

NYDRWGTYAIGG (Amb a 1 fragment) [Peptide 89]
reactivity with T cells isolated from allergic individuals: reactivity with T cells | No. positive patients SI > 3: 11 | No. positive patients SI > 5: 6 | % (positive patients SI > 3): 22.9% | % (positive patients SI > 5): 12.5%

PDDQIKKNVLAR (Amb a 1 fragment) [Peptide 98]
reactivity with T cells isolated from allergic individuals: reactivity with T cells | No. positive patients SI > 3: 13 | No. positive patients SI > 5: 8 | % (positive patients SI > 3): 27.1% | % (positive patients SI > 5): 16.7%

PDDQIKKNVLARTGT (Amb a 1 fragment) [Peptide 98-99]
reactivity with T cells isolated from allergic individuals: reactivity with T cells | T cell activating region recognized by % of patients: recognized by 16.7%

PILRQASDGDTI (Amb a 1 fragment) [Peptide 55]
No. positive patients SI > 3: 3 | No. positive patients SI > 5: 1 | % (positive patients SI > 3): 6.3% | % (positive patients SI > 5): 2.1%

PLWIIFKNDMVI (Amb a 1 fragment) [Peptide 31]
reactivity with T cells isolated from allergic individuals: reactivity with T cells | No. positive patients SI > 3: 11 | No. positive patients SI > 5: 10 | % (positive patients SI > 3): 22.9% | % (positive patients SI > 5): 20.8%

PSVNETRSLQAC (Amb a 1 fragment) [Peptide 4]
No. positive patients SI > 3: 4 | No. positive patients SI > 5: 1 | % (positive patients SI > 3): 8.3% | % (positive patients SI > 5): 2.1%
